Biological target: bovine cardiac myosin (Bos taurus, UniProt Q9BE39)
Assay: Myosin activation assay (PK/LDH-coupled ATPase, bovine cardiac myofibrils)
Assay type: biochemical
Details: AC20 = concentration at which total response is increased by twenty percent
Method in brief: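 Values are the concentrations raising the ATPase rate by 20% or 50% over DMSO, from 10-point dose responses fitted with four parameters. Rate is NADH loss at 340 nm via PK/LDH coupling, read 15 min at room temperature, in pH 6.8 PIPES with 50 μM ATP. Bovine cardiac myofibrils were held at pCa ~6 or pCa 10.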

bovine cardiac myosin, sequence (Q9BE39 whole entry): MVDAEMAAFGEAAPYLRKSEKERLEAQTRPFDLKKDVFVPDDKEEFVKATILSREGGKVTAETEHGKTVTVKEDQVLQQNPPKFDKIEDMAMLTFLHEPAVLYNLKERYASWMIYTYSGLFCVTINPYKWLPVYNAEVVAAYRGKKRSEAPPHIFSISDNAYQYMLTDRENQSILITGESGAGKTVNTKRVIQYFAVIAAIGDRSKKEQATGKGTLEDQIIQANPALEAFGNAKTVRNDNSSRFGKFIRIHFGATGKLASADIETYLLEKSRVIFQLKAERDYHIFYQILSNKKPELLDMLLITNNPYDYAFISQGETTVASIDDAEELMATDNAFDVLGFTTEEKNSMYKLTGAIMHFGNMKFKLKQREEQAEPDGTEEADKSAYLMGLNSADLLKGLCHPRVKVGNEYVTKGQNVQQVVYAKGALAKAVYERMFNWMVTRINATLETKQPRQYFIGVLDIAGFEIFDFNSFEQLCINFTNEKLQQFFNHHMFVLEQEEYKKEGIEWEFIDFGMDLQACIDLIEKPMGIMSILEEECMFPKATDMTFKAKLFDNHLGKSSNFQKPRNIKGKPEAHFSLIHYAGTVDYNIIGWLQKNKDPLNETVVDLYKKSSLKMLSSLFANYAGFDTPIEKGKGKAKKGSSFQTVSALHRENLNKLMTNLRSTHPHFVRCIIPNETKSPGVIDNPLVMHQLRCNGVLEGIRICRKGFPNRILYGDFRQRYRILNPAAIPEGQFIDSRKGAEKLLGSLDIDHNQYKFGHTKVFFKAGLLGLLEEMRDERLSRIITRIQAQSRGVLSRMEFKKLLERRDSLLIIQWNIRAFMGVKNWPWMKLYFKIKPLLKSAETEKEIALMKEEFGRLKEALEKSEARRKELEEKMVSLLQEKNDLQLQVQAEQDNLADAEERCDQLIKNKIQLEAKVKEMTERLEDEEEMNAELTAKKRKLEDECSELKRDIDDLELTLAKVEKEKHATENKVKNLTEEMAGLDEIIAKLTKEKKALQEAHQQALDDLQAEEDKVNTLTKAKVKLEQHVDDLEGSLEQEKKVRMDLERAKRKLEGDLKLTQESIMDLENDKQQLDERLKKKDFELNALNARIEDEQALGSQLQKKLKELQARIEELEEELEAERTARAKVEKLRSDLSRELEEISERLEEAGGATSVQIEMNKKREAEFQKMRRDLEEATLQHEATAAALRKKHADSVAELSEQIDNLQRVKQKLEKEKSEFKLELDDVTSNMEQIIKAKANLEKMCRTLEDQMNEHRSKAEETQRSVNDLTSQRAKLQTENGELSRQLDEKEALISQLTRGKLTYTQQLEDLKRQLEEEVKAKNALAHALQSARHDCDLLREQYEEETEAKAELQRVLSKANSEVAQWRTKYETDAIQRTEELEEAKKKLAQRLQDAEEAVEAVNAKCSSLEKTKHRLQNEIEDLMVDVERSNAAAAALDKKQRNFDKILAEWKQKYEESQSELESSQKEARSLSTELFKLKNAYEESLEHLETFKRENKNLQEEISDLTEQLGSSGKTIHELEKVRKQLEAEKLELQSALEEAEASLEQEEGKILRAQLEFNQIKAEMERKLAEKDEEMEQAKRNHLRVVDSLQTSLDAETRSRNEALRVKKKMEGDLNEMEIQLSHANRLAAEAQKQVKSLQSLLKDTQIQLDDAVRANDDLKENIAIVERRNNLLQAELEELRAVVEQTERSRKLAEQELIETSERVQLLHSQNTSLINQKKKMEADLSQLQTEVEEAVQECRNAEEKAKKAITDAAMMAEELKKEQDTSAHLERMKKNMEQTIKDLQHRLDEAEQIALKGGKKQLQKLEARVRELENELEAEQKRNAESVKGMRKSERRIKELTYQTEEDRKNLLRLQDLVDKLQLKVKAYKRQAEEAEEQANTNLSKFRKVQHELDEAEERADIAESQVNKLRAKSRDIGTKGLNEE
bovine cardiac myosin, sequence (P85100 whole entry partner): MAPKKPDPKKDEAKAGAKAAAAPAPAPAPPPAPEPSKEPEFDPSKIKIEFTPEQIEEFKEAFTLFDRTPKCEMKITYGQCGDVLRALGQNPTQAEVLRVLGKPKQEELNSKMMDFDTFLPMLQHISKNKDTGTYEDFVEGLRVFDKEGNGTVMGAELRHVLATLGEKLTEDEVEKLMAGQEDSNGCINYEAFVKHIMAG
bovine cardiac myosin, sequence (Q3SZE5 whole entry partner): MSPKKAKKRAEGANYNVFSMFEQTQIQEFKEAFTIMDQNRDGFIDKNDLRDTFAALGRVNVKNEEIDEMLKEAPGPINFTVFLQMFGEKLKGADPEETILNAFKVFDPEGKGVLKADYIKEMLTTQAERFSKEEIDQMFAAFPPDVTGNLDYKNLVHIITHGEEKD

| Compound | Myosin Activation (AC20) |
| --- | --- |
| CC(C)(C1CCN(C(=O)Nc2ccc(Cl)nc2)CC1)S(=O)(=O)c1cccc(F)c1 [Compound 159, N-(6-chloropyridin-3-yl)-4-(2-((3-fluorophenyl)sulfonyl)propan-2-yl)piperidine-1-carboxamide] | ++ (++ represents myosin activation value AC20 from 2 μM-5 μM) |
| CC(C)(C1CCN(C(=O)Nc2ccnc(Cl)c2)CC1)S(=O)(=O)c1cccc(F)c1 [Compound 160, N-(2-chloropyridin-4-yl)-4-(2-((3-fluorophenyl)sulfonyl)propan-2-yl)piperidine-1-carboxamide] | ++ (++ represents myosin activation value AC20 from 2 μM-5 μM) |
| COc1ccc(NC(=O)N2CCC(C(C)(C)S(=O)(=O)c3cccc(F)c3)CC2)cn1 [Compound 161, 4-(2-((3-fluorophenyl)sulfonyl)propan-2-yl)-N-(6-methoxypyridin-3-yl)piperidine-1-carboxamide] | + (+ represents myosin activation value AC20 > 5 μM) |
| Cc1ccc(NC(=O)N2CCC(C(C)(C)S(=O)(=O)c3cccc(F)c3)CC2)cn1 [Compound 162, 4-(2-((3-fluorophenyl)sulfonyl)propan-2-yl)-N-(6-methylpyridin-3-yl)piperidine-1-carboxamide] | + (+ represents myosin activation value AC20 > 5 μM) |
| CC(C)(C1(O)CCN(C(=O)Nc2ccnnc2)CC1)S(=O)(=O)c1cccc(F)c1 [Compound 163, 4-(2-((3-fluorophenyl)sulfonyl)propan-2-yl)-4-hydroxy-N-(pyridazin-4-yl)piperidine-1-carboxamide] | + (+ represents myosin activation value AC20 > 5 μM) |
| N#Cc1ccc(S(=O)(=O)C2(C3CCN(C(=O)Nc4ccnnc4)CC3)CCC2)cc1 [Compound 164, 4-(1-((4-cyanophenyl)sulfonyl)cyclobutyl)-N-(pyridazin-4-yl)piperidine-1-carboxamide] | +++ (+++ represents myosin activation value AC20 < 2 μM) |
| O=C(Nc1ccnnc1)N1CCC(C2(S(=O)(=O)c3ccc(C(F)(F)F)cc3)CCC2)CC1 [Compound 165, N-(pyridazin-4-yl)-4-(1-((4-(trifluoromethyl)phenyl)sulfonyl)cyclobutyl)piperidine-1-carboxamide] | +++ (+++ represents myosin activation value AC20 < 2 μM) |
| O=C(Nc1ccnnc1)N1CCC(F)(C2(S(=O)(=O)c3cccc(F)c3)CCC2)CC1 [Compound 166, 4-fluoro-4-(1-((3-fluorophenyl)sulfonyl)cyclobutyl)-N-(pyridazin-4-yl)piperidine-1-carboxamide] | ++ (++ represents myosin activation value AC20 from 2 μM-5 μM) |
| O=C(Nc1ccnnc1)N1CCC(C2(S(=O)(=O)c3cc(F)cc(F)c3)CCC2)CC1 [Compound 167, 4-(1-((3,5-difluorophenyl)sulfonyl)cyclobutyl)-N-(pyridazin-4-yl)piperidine-1-carboxamide] | +++ (+++ represents myosin activation value AC20 < 2 μM) |
| Cn1cc(S(=O)(=O)C(C)(C)C2CCN(C(=O)Nc3ccnnc3)CC2)c(C(F)F)n1 [Compound 168, 4-(2-((3-(difluoromethyl)-1-methyl-1H-pyrazol-4-yl)sulfonyl)propan-2-yl)-N-(pyridazin-4-yl)piperidine-1-carboxamide] | +++ (+++ represents myosin activation value AC20 < 2 μM) |
| CC(C)(C1CCN(C(=O)Nc2ccnnc2)CC1)S(=O)(=O)c1cc(F)cc(F)c1 [Compound 169, 4-(2-((3,5-difluorophenyl)sulfonyl)propan-2-yl)-N-(pyridazin-4-yl)piperidine-1-carboxamide] | +++ (+++ represents myosin activation value AC20 < 2 μM) |
| Cn1cc(S(=O)(=O)C2(C3CCN(C(=O)Nc4ccnnc4)CC3)CCC2)c(C(F)F)n1 [Compound 170, 4-(1-((3-(difluoromethyl)-1-methyl-1H-pyrazol-4-yl)sulfonyl)cyclobutyl)-N-(pyridazin-4-yl)piperidine-1-carboxamide] | +++ (+++ represents myosin activation value AC20 < 2 μM) |
| CC(C)(C1CCN(C(=O)Nc2ccnnc2)CC1)S(=O)(=O)c1ccc(C(F)(F)F)nc1 [Compound 171, N-(pyridazin-4-yl)-4-(2-((6-(trifluoromethyl)pyridin-3-yl)sulfonyl)propan-2-yl)piperidine-1-carboxamide] | ++ (++ represents myosin activation value AC20 from 2 μM-5 μM) |
| Cn1cnc(S(=O)(=O)C(C)(C)C2CCN(C(=O)Nc3ccnnc3)CC2)c1 [Compound 172, 4-(2-((1-methyl-1H-imidazol-4-yl)sulfonyl)propan-2-yl)-N-(pyridazin-4-yl)piperidine-1-carboxamide] | + (+ represents myosin activation value AC20 > 5 μM) |
| Cn1cnc(S(=O)(=O)C2(C3CCN(C(=O)Nc4ccnnc4)CC3)CCC2)c1 [Compound 173, 4-(1-((1-methyl-1H-imidazol-4-yl)sulfonyl)cyclobutyl)-N-(pyridazin-4-yl)piperidine-1-carboxamide] | + (+ represents myosin activation value AC20 > 5 μM) |
| Cn1nccc1S(=O)(=O)C1(C2CCN(C(=O)Nc3ccnnc3)CC2)CCC1 [Compound 174, 4-(1-((1-methyl-1H-pyrazol-5-yl)sulfonyl)cyclobutyl)-N-(pyridazin-4-yl)piperidine-1-carboxamide] | +++ (+++ represents myosin activation value AC20 < 2 μM) |
| Cn1nccc1S(=O)(=O)C1(C2CCN(C(=O)Nc3cnns3)CC2)CCC1 [Compound 175, 4-(1-((1-methyl-1H-pyrazol-5-yl)sulfonyl)cyclobutyl)-N-(1,2,3-thiadiazol-5-yl)piperidine-1-carboxamide] | +++ (+++ represents myosin activation value AC20 < 2 μM) |
| CC(C)(C1CCN(C(=O)Nc2ccncc2Cl)CC1)S(=O)(=O)c1cccc(F)c1 [Compound 176, N-(3-chloropyridin-4-yl)-4-(2-((3-fluorophenyl)sulfonyl)propan-2-yl)piperidine-1-carboxamide] | + (+ represents myosin activation value AC20 > 5 μM) |
| CC(C)(C1CCN(C(=O)Nc2ccncc2F)CC1)S(=O)(=O)c1cccc(F)c1 [Compound 177, 4-(2-((3-fluorophenyl)sulfonyl)propan-2-yl)-N-(3-fluoropyridin-4-yl)piperidine-1-carboxamide] | + (+ represents myosin activation value AC20 > 5 μM) |
| CC(F)(F)C(C)(C1CCN(C(=O)Nc2ccnnc2)CC1)S(=O)(=O)c1cccc(F)c1 (stereo not drawn) [Compound 178, 4-(3,3-difluoro-2-((3-fluorophenyl)sulfonyl)butan-2-yl)-N-(pyridazin-4-yl)piperidine-1-carboxamide] | +++ (+++ represents myosin activation value AC20 < 2 μM) |
| CC(C)(C1CCN(C(=O)Nc2cnns2)CC1)S(=O)(=O)c1ccc(C#N)cc1 [Compound 179, 4-(2-((4-cyanophenyl)sulfonyl)propan-2-yl)-N-(1,2,3-thiadiazol-5-yl)piperidine-1-carboxamide] | +++ (+++ represents myosin activation value AC20 < 2 μM) |
| CC(C)(C1CCN(C(=O)Nc2ccnnc2)CC1)S(=O)(=O)c1ccc(C#N)cc1 [Compound 180, 4-(2-((4-cyanophenyl)sulfonyl)propan-2-yl)-N-(pyridazin-4-yl)piperidine-1-carboxamide] | ++ (++ represents myosin activation value AC20 from 2 μM-5 μM) |
| CC(C)(C1CCN(C(=O)Nc2ccnnc2)CC1)S(=O)(=O)c1ccc(C(F)(F)F)cc1 [Compound 181, N-(pyridazin-4-yl)-4-(2-((4-(trifluoromethyl)phenyl)sulfonyl)propan-2-yl)piperidine-1-carboxamide] | ++ (++ represents myosin activation value AC20 from 2 μM-5 μM) |
| CC(C)(C1CCN(C(=O)Nc2cnns2)CC1)S(=O)(=O)c1ccc(C(F)(F)F)cc1 [Compound 182, N-(1,2,3-thiadiazol-5-yl)-4-(2-((4-(trifluoromethyl)phenyl)sulfonyl)propan-2-yl)piperidine-1-carboxamide] | +++ (+++ represents myosin activation value AC20 < 2 μM) |
| CCn1nccc1S(=O)(=O)C(C)(C)C1CCN(C(=O)Nc2cnns2)CC1 [Compound 183, 4-(2-((1-ethyl-1H-pyrazol-5-yl)sulfonyl)propan-2-yl)-N-(1,2,3-thiadiazol-5-yl)piperidine-1-carboxamide] | ++ (++ represents myosin activation value AC20 from 2 μM-5 μM) |
| CCn1nccc1S(=O)(=O)C(C)(C)C1CCN(C(=O)Nc2ccncc2)CC1 [Compound 184, 4-(2-((1-ethyl-1H-pyrazol-5-yl)sulfonyl)propan-2-yl)-N-(pyridin-4-yl)piperidine-1-carboxamide] | ++ (++ represents myosin activation value AC20 from 2 μM-5 μM) |
| CCn1nccc1S(=O)(=O)C(C)(C)C1CCN(C(=O)Nc2ccnnc2)CC1 [Compound 185, 4-(2-((1-ethyl-1H-pyrazol-5-yl)sulfonyl)propan-2-yl)-N-(pyridazin-4-yl)piperidine-1-carboxamide] | + (+ represents myosin activation value AC20 > 5 μM) |
| Cc1cc(S(=O)(=O)C(C)(C)C2CCN(C(=O)Nc3ccncc3)CC2)n(C)n1 [Compound 186, 4-(2-((1,3-dimethyl-1H-pyrazol-5-yl)sulfonyl)propan-2-yl)-N-(pyridin-4-yl)piperidine-1-carboxamide] | +++ (+++ represents myosin activation value AC20 < 2 μM) |
| Cc1cc(S(=O)(=O)C(C)(C)C2CCN(C(=O)Nc3ccnnc3)CC2)n(C)n1 [Compound 187, 4-(2-((1,3-dimethyl-1H-pyrazol-5-yl)sulfonyl)propan-2-yl)-N-(pyridazin-4-yl)piperidine-1-carboxamide] | +++ (+++ represents myosin activation value AC20 < 2 μM) |
| Cc1cc(S(=O)(=O)C(C)(C)C2CCN(C(=O)Nc3cnns3)CC2)n(C)n1 [Compound 188, 4-(2-((1,3-dimethyl-1H-pyrazol-5-yl)sulfonyl)propan-2-yl)-N-(1,2,3-thiadiazol-5-yl)piperidine-1-carboxamide] | +++ (+++ represents myosin activation value AC20 < 2 μM) |

— US11123337B2, “4-methylsulfonyl-substituted piperidine urea compounds” (MYOKARDIA, INC., priority 2015, dated 2021)
